Experimental findings from US10080811B2, “Diagnostic marker compounds and their use” (University of Leeds, priority 2012, dated 2018) are described below.

One data set concerns SH-SY5Y cells. The settings on record: 500 μM H2O2 24 hours before, 24 hours exposure. How it is done: Cytoprotective effect tests were performed on SH-SY5Y cells that had previously been exposed to hydrogen peroxide for 24 hours.
The next data set concerns C57BL/6J mice. Conditions: IP injection. As to the method: After 24 hours mice were perfused transcardially with 0.9% saline followed by 4% paraformaldehyde. Brains, arteries, heart, liver kidneys were removed, post-fixed and […] sections were cut on a vibratome (Leica Microsystems, Germany) The sections were mounted on slides, dried at 4° C., cover slipped using vectashield mounting medium and examined using a Zeiss laser scanning confocal microscope (LSM 510).

Structures are written as SMILES.

As for `O=[N+]([O-])[O-].O=[N+]([O-])[O-].O=[N+]([O-])[O-].[Ce+3]` [cerium nitrate], the “cytoprotective potency, comparison of the two nitrates” value with SH-SY5Y cells is given as “more potent antioxidant-based cytoprotective agent compared to europium nitrate”. Also, in the data set with SH-SY5Y cells (n=80), the “effect on hydrogen peroxide's cytotoxicity” value is “significantly inhibiting hydrogen peroxide's cytotoxicity”.

With `O=[N+]([O-])[O-].O=[N+]([O-])[O-].O=[N+]([O-])[O-].[Eu+3]` [europium nitrate], the “blood brain barrier passage (labelling in the brain tissue)” value in the data set on C57BL/6J mice is “cross the blood brain barrier”. Moreover, in the data set on C57BL/6J mice (100 μM solution, 24 hours), the “highest number of fluorescent peaks, brain tissue” value was no less than 20 peaks per 100 μm^2 area; the “highest number of fluorescent peaks, heart tissue” value is given as no more than 1 peaks in a 100 μm^2 area; the “highest number of fluorescent peaks, liver tissue” value is reported as less than 10 peaks in a 100 μm^2 area; the “highest number of fluorescent peaks, lung tissue” value is on record as no more than 1 peaks in a 100 μm^2 area. Besides, the “uptake into hepatocytes in liver tissue” value in the data set with C57BL/6J mice (higher magnifications) is “had entered the hepatocytes”.
